Experimental data published in patent US11111242B2, “Pyrrolo[2,3-d]pyrimidinyl, pyrrolo[2,3-b]pyrazinyl and pyrrolo[2,3-d]pyridinyl acrylamides” (Pfizer Inc., priority 2013, dated 2021).
Read-outs that look alike come from different tables or passages of the source.

Tests used:
[1] = Stability of JAK3 covalent inhibitors in human whole blood; type: in vitro ADME; settings: 37° C.; for half-life at 1 μM: both sexes, read-out: Human blood stability t1/2
Protocol: Human blood was collected from one male and one female healthy subjects at the Occupational Health & Wellness Center at Pfizer, Groton, Conn. and pooled for each study. Both rat and human blood was collected freshly into K2-EDTA tubes and kept on ice. An aliquot of the blood was transferred to microtubes and pre-warmed for 10 min at 37° C. using a heat block. […] An aliquot of the incubation mixture was removed at designated time points during the course of the incubation, mixed with an aliquot of acetonitrile containing an internal standard, vortexed and centrifuged. The resulting supernatants were removed and subjected to LC-MS/MS analyses to determine parent compound concentrations. Peak area ratios of the parent compound vs the internal standard were used to determine the % of parent compound remaining vs incubation time.

[2] = test system: IL-15 induced P-STAT5 in human PBMC (total lymphocytes); assay: PBMC IL-15 Induced P-STAT5; type: cell-based; settings: IL-15 stimulated, read-out: PBMC IL15-pSTAT5 IC50
Summary of the method: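 Thawed human PBMC in RPMI, preincubated 30 min at 37 °C, then IL-15 stimulated. Cells methanol-permeabilized (90%, on ice 20 min) and stained for phospho-STAT5. Read by flow cytometry, gated on total lymphocytes.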

[3] = test system: IL-15 induced STAT5 phosphorylation in Human Whole Blood (total lymphocytes); assay: HWB IL-15 Induced STAT5 Phosphorylation Assay; type: cell-based; settings: Lymphocyte, IL-15 stimulated, read-out: HWB-IL15-pSTAT5 IC50

| SMILES | Human blood stability t1/2 ([1]; 1 μM) [h] | half-life at 1 μM [1] [h] | IC50 [3] [nM] | IC50 [2] [nM] | IC50 ([2]; Homo sapiens, PBMC) [nM] |
| --- | --- | --- | --- | --- | --- |
| C=CC(=O)N1CC[C@@H](Nc2cnc3[nH]cc(C(=O)NC(C)C)c3n2)[C@H](OC)C1 [Example 305, 2-{[(3R,4R)-1-acryloyl-3-methoxypiperidin-4-yl]amino}-N-(propan-2-yl)-5H-pyrrolo[2,3-b]pyrazine-7-carboxamide] |  |  | 2640 | 744 |  |
| C=CC(=O)N1CCC(Nc2cnc3[nH]cc(C(=O)NC4CCCCC4)c3n2)CC1 [Example 278, 2-[(1-acryloylpiperidin-4-yl)amino]-N-cyclohexyl-5H-pyrrolo[2,3-b]pyrazine-7-carboxamide] |  |  | 362 | 57.4 |  |
| C=CC(=O)N1CC(Nc2cnc3[nH]ccc3n2)C1 [Example 337, 1-(3-((5H-Pyrrolo[2,3-b]pyrazin-2-yl)amino)azetidin-1-yl)prop-2-en-1-one] |  |  | 631 |  | 237 |
| C=CC(=O)N1CCC(Nc2cnc3[nH]cc(C(=O)NCC(C)CC(F)(F)F)c3n2)CC1 (centres unmarked) [Example 253, 2-[(1-acryloylpiperidin-4-yl)amino]-N-(4,4,4-trifluoro-2-methylbutyl)-5H-pyrrolo[2,3-b]pyrazine-7-carboxamide] |  |  | 429 |  | 77.5 |
| C=CC(=O)N1CCC(Nc2cnc3[nH]cc(C(=O)NCC(C)C)c3n2)CC1 [Example 272, 2-[(1-acryloylpiperidin-4-yl)amino]-N-(2-methylpropyl)-5H-pyrrolo[2,3-b]pyrazine-7-carboxamide] |  |  | 259 |  | 72.3 |
| C=CC(=O)N1CCC(Nc2cnc3[nH]cc(C(=O)NCC4CC(F)(F)C4)c3n2)CC1 [Example 238, 2-[(1-acryloylpiperidin-4-yl)amino]-N-[(3,3-difluorocyclobutyl)methyl]-5H-pyrrolo[2,3-b]pyrazine-7-carboxamide] |  |  | 615 |  | 181 |
| C=CC(=O)N1[C@@H]2CC[C@H]1CN(c1cnc3[nH]cc(C(=O)NC(C)C)c3n1)C2 [Example 301, 2-[(1R,5S)-8-acryloyl-3,8-diazabicyclo[3.2.1]oct-3-yl]-N-(propan-2-yl)-5H-pyrrolo[2,3-b]pyrazine-7-carboxamide] |  |  | 4900 | 408 |  |
| C=CC(=O)N1CCC(C)(Nc2cnc3[nH]cc(C(=O)NC(C)C)c3n2)CC1 [Example 318, 2-[(1-acryloyl-4-methylpiperidin-4-yl)amino]-N-(propan-2-yl)-5H-pyrrolo[2,3-b]pyrazine-7-carboxamide] |  |  | 2080 | 260 |  |
| C=CC(=O)N1CCC(Nc2cnc3[nH]cc(C(=O)NC45CC(C4)C5)c3n2)CC1 [Example 281, 2-[(1-acryloylpiperidin-4-yl)amino]-N-(bicyclo[1.1.1]pent-1-yl)-5H-pyrrolo[2,3-b]pyrazine-7-carboxamide] |  |  | 489 |  | 31.5 |
| C=CC(=O)N1CCC(Nc2cnc3[nH]cc(C(=O)NCCC(F)(F)F)c3n2)CC1 [Example 246, 2-[(1-acryloylpiperidin-4-yl)amino]-N-(3,3,3-trifluoropropyl)-5H-pyrrolo[2,3-b]pyrazine-7-carboxamide] |  |  | 186 | 43 |  |
| C=CC(=O)N1CCC(Nc2cnc3[nH]cc(-c4ccnc(F)c4)c3n2)CC1 [Example 211, 1-(4-{[7-(2-fluoropyridin-4-yl)-5H-pyrrolo[2,3-b]pyrazin-2-yl]amino}piperidin-1-yl)prop-2-en-1-one] |  |  | 4330 | 206 |  |
| C=CC(=O)N1CCC(Nc2cnc3[nH]cc(-c4cncc(F)c4)c3n2)CC1 [Example 212, 1-(4-{[7-(5-fluoropyridin-3-yl)-5H-pyrrolo[2,3-b]pyrazin-2-yl]amino}piperidin-1-yl)prop-2-en-1-one] |  |  | 2080 | 154 |  |
| C=CC(=O)N1CCC(Nc2cnc3[nH]cc(C(=O)NC4CCCC4)c3n2)CC1 [Example 283, 2-[(1-acryloylpiperidin-4-yl)amino]-N-cyclopentyl-5H-pyrrolo[2,3-b]pyrazine-7-carboxamide] |  |  | 700 |  | 58.4 |
| C=CC(=O)N1CCC(Nc2cnc3[nH]cc(C(=O)N[C@@H](C)CCC)c3n2)CC1 [Example 267, 2-[(1-acryloylpiperidin-4-yl)amino]-N-[(2S)-pentan-2-yl]-5H-pyrrolo[2,3-b]pyrazine-7-carboxamide] |  |  | 242 | 36 |  |
| C=CC(=O)N1CCC(Nc2cnc3[nH]cc(C(=O)NCC(C)(F)F)c3n2)CC1 [Example 282, 2-[(1-acryloylpiperidin-4-yl)amino]-N-(2,2-difluoropropyl)-5H-pyrrolo[2,3-b]pyrazine-7-carboxamide] |  |  | 432 | 71.7 |  |
| C=CC(=O)N1CC[C@@H](Nc2cnc3[nH]cc(C(=O)NC(C)C)c3n2)[C@H](O)C1 [Example 196, 2-{[(3R,4R)-1-acryloyl-3-hydroxypiperidin-4-yl]amino}-N-(propan-2-yl)-5H-pyrrolo[2,3-b]pyrazine-7-carboxamide] |  |  | 3290 | 1490 |  |

Further lines, with some results ahead:

| Human blood stability t1/2 ([1]; 1 μM) [h] | half-life at 1 μM [1] [h] | IC50 [3] [nM] | SMILES | IC50 [2] [nM] | IC50 ([2]; Homo sapiens, PBMC) [nM] |
| --- | --- | --- | --- | --- | --- |
| >6 |  |  | C=CC(=O)N1CC[C@H](Nc2cnc3[nH]cc(C(=O)NC(C)(C)C)c3n2)C[C@@H]1C [Example 341, 2-(((2S,4S)-1-Acryloyl-2-methylpiperidin-4-yl)amino)-N-(tert-butyl)-5H-pyrrolo[2,3-b]pyrazine-7-carboxamide] |  |  |
|  | > 6 |  | C=CC(=O)N1CC[C@H](Nc2cnc3[nH]cc(C(=O)NC(C)(C)C)c3n2)C[C@@H]1C (racemic) [Example 340] |  |  |
|  | > 6 |  | C=CC(=O)N1CCC[C@@H](Nc2ncnc3[nH]cc(-c4ccc(C(=O)NC5CC5)c(Cl)c4)c23)C1 [Example 31, 4-(4-{[(3R)-1-acryloylpiperidin-3-yl]amino}-7H-pyrrolo[2,3-d]pyrimidin-5-yl)-2-chloro-N-cyclopropylbenzamide] |  |  |
|  |  | 2670 | C=CC(=O)N1CCN(c2cnc3[nH]cc(C(=O)NC(C)C)c3n2)C[C@@H]1C [Example 295, 2-[(3S)-4-acryloyl-3-methylpiperazin-1-yl]-N-(propan-2-yl)-5H-pyrrolo[2,3-b]pyrazine-7-carboxamide] | 334 |  |
|  |  | 115 | C=CC(=O)N1CC[C@H](F)[C@@H](Nc2ncnc3[nH]ccc23)C1 [Example 4, 1-((3S,4S)-3-((7H-pyrrolo[2,3-d]pyrimidin-4-yl)amino)-4-fluoropiperidin-1-yl)prop-2-en-1-one] |  | 19.7 |
|  |  | 549 | C=CC(=O)N1C[C@H](Nc2ncnc3[nH]cc(CCOC)c23)CC[C@@H]1C [Example 13, 1-((2S,5R)-5-((5-(2-Methoxyethyl)-7H-pyrrolo[2,3-d]pyrimidin-4-yl)amino)-2-methylpiperidin-1-yl)prop-2-en-1-one] | 114 |  |
|  |  | 819 | C=CC(=O)N1CCC[C@@H](Nc2ncnc3[nH]cc(F)c23)C1 [Example 42, 1-{(3R)-3-[(5-fluoro-7H-pyrrolo[2,3-d]pyrimidin-4-yl)amino]piperidin-1-yl}prop-2-en-1-one] |  | 293 |
|  |  | 359 | C=CC(=O)N1CCC[C@@H](Nc2ncnc3[nH]cc(CCOC)c23)C1 [Example 46, 1-[(3R)-3-{[5-(2-methoxyethyl)-7H-pyrrolo[2,3-d]pyrimidin-4-yl]amino}piperidin-1-yl]prop-2-en-1-one] |  | 279 |
|  |  | 1010 | C=CC(=O)N1CCC[C@@H](Nc2ncnc3[nH]cc(C#N)c23)C1 [Example 45, 4-{[(3R)-1-acryloylpiperidin-3-yl]amino}-7H-pyrrolo[2,3-d]pyrimidine-5-carbonitrile] | 348 |  |
|  |  | 505 | C=CC(=O)N1C[C@H](Nc2ncnc3[nH]ccc23)C[C@H](OC)C1 [Example 19, 1-((3R,5S)-3-((7H-Pyrrolo[2,3-d]pyrimidin-4-yl)amino)-5-methoxypiperidin-1-yl)prop-2-en-1-one] | 139 |  |
|  |  | 461 | C=CC(=O)N1C[C@H](F)C[C@@H](Nc2ncnc3[nH]ccc23)C1 [Example 10, 1-((3R,5R)-3-((7H-pyrrolo[2,3-d]pyrimidin-4-yl)amino)-5-fluoropiperidin-1-yl)prop-2-en-1-one] |  | 133 |
|  |  | 522 | C=CC(=O)N1C[C@H](Nc2ncnc3[nH]cc(C#N)c23)CC[C@@H]1C [Example 163, 4-{[(3R,6S)-1-Acryloyl-6-methylpiperidin-3-yl]amino}-7H-pyrrolo[2,3-d]pyrimidine-5-carbonitrile] |  | 109 |
|  |  | 804 | C=CC(=O)N1CCC[C@H]1CNc1cnc2[nH]cc(C(=O)NC(C)C)c2n1 [Example 177, 2-({[(2S)-1-acryloylpyrrolidin-2-yl]methyl}amino)-N-(propan-2-yl)-5H-pyrrolo[2,3-b]pyrazine-7-carboxamide] |  | 108 |
|  | > 6 |  | C=CC(=O)N1CC[C@@H](Nc2cnc3[nH]cc(C(=O)NC(C)(C)C)c3n2)C[C@H]1C (single isomer, unassigned) [Example 342] |  |  |
|  |  | 153 | C=CC(=O)N1CCC[C@@H](Nc2ncnc3[nH]cc(Cl)c23)C1 [Example 3, (R)-1-(3-((5-chloro-7H-pyrrolo[2,3-d]pyrimidin-4-yl)amino)piperidin-1-yl)prop-2-en-1-one] |  | 35.2 |
|  |  | 797 | C=CC(=O)N1C[C@H](Nc2ncnc3[nH]ccc23)CC[C@@H]1C (racemic) [Example 129, rac-1-[(2S,5R)-2-Methyl-5-(7H-pyrrolo[2,3-d]pyrimidin-4-ylamino)piperidin-1-yl]prop-2-en-1-one] | 114 |  |
|  |  | 392 | C=CC(=O)N1CCC[C@@H](Nc2ncnc3[nH]ccc23)C1 [Example 12, (R)-1-(3-((7H-Pyrrolo[2,3-d]pyrimidin-4-yl)amino)piperidin-1-yl)prop-2-en-1-one] |  | 107 |
